According to publication PMC8187479, “Sugar phosphate activation of the stress sensor eIF2B” (Nature Communications, 2021):
“And” between values parts separate entries of the source, which are not always exact repeats. Identical values can stand only once. One block for each molecule: values may come before it.

Key:
eIF2Bα [1] = molecular target: T1, eIF2Bα (Homo sapiens, UniProt Q14232); assay: Differential scanning fluorimetry (Protein Thermal Shift), eIF2Bα Tm; type: binding; conditions: individual replicates Rep 1-4, control without metabolite about 64.1
T1 construct: made in house; host or cells: E. coli BL21(DE3)
T1 sequence (Q14232 1-305): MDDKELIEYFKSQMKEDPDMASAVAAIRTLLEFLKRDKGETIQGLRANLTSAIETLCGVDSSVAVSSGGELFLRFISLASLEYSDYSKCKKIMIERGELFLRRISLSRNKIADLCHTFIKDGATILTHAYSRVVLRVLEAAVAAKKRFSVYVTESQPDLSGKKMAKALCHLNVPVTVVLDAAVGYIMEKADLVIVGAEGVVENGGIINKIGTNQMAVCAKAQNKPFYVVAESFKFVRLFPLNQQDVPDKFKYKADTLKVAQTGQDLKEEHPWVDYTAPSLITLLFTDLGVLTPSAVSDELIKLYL
Procedure: The effect of metabolite binding on eIF2Bα Tm was assessed using the Protein Thermal Shift assay (Thermo Fisher), following manufacturer’s instructions. Briefly, reaction conditions for each 20 μL reaction were: 1.1 μg (1.5 μM) of eIF2Bα, 5 μl Thermal Shift buffer, 1X Thermal Shift dye, and metabolites in dose response. Reactions were run in 384-well format on a QuantStudio 6 Flex instrument (Thermo Fisher). The resulting melt curves were analyzed using Protein Thermal Shift Software, and eIF2Bα Tms for each condition were calculated by fitting to the Boltzmann function.

eIF2Bα [2] = molecular target: T1, eIF2Bα; assay: MIDAS (mass spectrometry integrated with equilibrium dialysis) metabolite binding screen; conditions: MIDAS screen, sheet eIF2Ba; metabolites screened in pools 1-4; p-value and q-value given
Outline: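 Hits called at Storey q < 0.1 on z-scores of PCA-corrected log2 fold change between protein and metabolite chambers, quantified by FIA-MS in triplicate.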

[3] = test system: recombinant C. thermophilum eIF2Bα; set-up: method as in PMID 26384431; conditions: ITC; cited from earlier work
eIF2B = molecular target: T2, eIF2B (Homo sapiens, UniProt P49770+Q14232+Q9UI10); assay: eIF2B GEF activity assay, unbiased metabolite screen (Bodipy-FL-GDP release); type: biochemical; conditions: 10 μM metabolite
T2 construct: made in house; host or cells: eIF2Bα: E. coli BL21(DE3)
Procedure: (§1) Bodipy-FL-GDP-loaded eIF2 was used as a substrate for recombinant eIF2B. The assay was performed in 384-well plates. Reactions were read on a SpectraMax i3x plate reader (Molecular Devices) using the instrument’s Softmax Pro software with the following parameters: plate temperature = 25 °C; excitation wavelength = 485 nm (15 nm width); emission wavelength = 535 nm (25 nm width); read duration = 30 min at 45 s intervals. Data were analyzed in Prism. GDP release half-lives were calculated by fitting single-exponential decay curves.
For unbiased screening, MIDAS metabolite libraries at 10 mM stock concentration were dispensed into wells of the assay plate using an Echo Acoustic Liquid Handler (Labcyte). […] A single well was run for each metabolite. […] For targeted experiments with HEK293T lysates, the following conditions were used: 50 nM Bodipy-FL-GDP-loaded eIF2, 0.1 mM GDP, 1 mg/ml BSA, 0.1 or 0.3 mg/ml lysates.

[4] = molecular target: T3, eIF2B decamer in WT HEK293T lysate (Homo sapiens, UniProt P49770+Q14232+Q9UI10); assay: Sucrose gradient centrifugation, eIF2B complex assembly, WT HEK293T lysate; type: biochemical; conditions: 400 mM KCl, 5–20% sucrose gradient
T3 construct: endogenous in cells; host or cells: HEK293T (wild type) lysate
Procedure: (§2) WT or eIF2Bα mutant HEK293T cells were harvested and lysed in 50 mM HEPES, 400 mM KCl, 1 mM DTT, 4 mM Mg(OAc)2, pH 7.5 + 0.5% Triton-X-100 + EDTA-free protease inhibitor cocktail (Roche) on ice for 30 min. Lysates were cleared by centrifugation at 48,000 × g, 4 °C for 30 min. 100 μL of each cleared lysate was loaded onto a 5–20% sucrose gradient prepared in a 13 × 51 mm ultracentrifuge tube using a Gradient Station (Biocomp) and centrifuged in a SW55 Ti rotor at 152,000 × g, 4 °C for 12 h. After centrifugation, 24 × 200 μL fractions were manually collected from the top to bottom of each gradient. Each fraction was subjected to methanol/chloroform precipitation and SDS-PAGE followed by Western Blot with the indicated antibodies. Blots were imaged on a ChemiDoc MP (Bio-Rad), and band intensities were quantified using the instrument’s Image Lab software. Each value was then divided by total intensity obtained across all fractions to determine percent enrichment of each subunit in each fraction.

[5] = molecular target: T4, phospho-eIF2α binding to eIF2B (Homo sapiens, UniProt P49770+Q14232+Q9UI10); assay: Phospho-eIF2α co-immunoprecipitation with FLAG-tagged eIF2B; conditions: lysate of thapsigargin-treated HEK293T eIF2Bβ-FLAG cells; ligand 2 h at 4 °C
T4 construct: endogenous in cells; host or cells: HEK293T with FLAG knock-in at the endogenous eIF2Bβ locus, treated with thapsigargin; lysate, anti-FLAG IP
Procedure: HEK293T cells endogenously expressing eIF2Bβ with a C-terminal FLAG tag were maintained in DMEM High Glucose (Corning CellGro) supplemented with 10% FBS (Gibco) and antibiotic-antimycotic (Gibco). Upon reaching 90% confluency, cells were treated with either DMSO or 100 nM thapsigargin (Sigma) for 4 h. Cells were harvested and lysed in 25 mM HEPES, 150 mM KCl, 1% NP-40, 1 mM EDTA, pH 7.4 + Complete protease inhibitor cocktail (Roche) and PhosStop (Roche) on ice for 20 min. Lysates were cleared by centrifugation at 18,000 × g, 20 min, 4 °C, and transferred to Eppendorf tubes containing anti-FLAG M2 magnetic beads (Sigma). Mixtures were incubated overnight at 4 °C. To test the effect of ligands, these were added to the mixtures and incubated for an additional 2 h at 4 °C. Beads were washed three times with lysis buffer, eluted with 1× LDS buffer (Invitrogen), and subjected to SDS-PAGE followed by Western Blot with the indicated antibodies.

eIF2Bα^V183F = molecular target: T5, eIF2Bα^V183F (Homo sapiens, UniProt Q14232, V183F); assay: Size-exclusion chromatography of recombinant eIF2Bα V183F, alone or with eIF2B(βδγε); type: biochemical; conditions: SEC, eIF2Bα V183F alone
T5 construct: made in house; host or cells: E. coli BL21(DE3)
T5 sequence (Q14232 1-305 V183F): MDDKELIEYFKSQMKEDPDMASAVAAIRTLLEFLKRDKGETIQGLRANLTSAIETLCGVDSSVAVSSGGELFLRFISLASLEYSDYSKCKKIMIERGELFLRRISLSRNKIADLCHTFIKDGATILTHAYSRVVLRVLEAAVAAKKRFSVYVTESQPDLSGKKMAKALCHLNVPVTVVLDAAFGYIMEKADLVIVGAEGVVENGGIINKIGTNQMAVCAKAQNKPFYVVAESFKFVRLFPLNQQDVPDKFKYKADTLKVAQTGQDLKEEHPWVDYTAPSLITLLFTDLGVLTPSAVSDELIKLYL
Procedure: (§3) Purified proteins were thawed and centrifuged at 20,000 × g, 10 min, 4 °C to remove any potential precipitate. Concentrations of eIF2B(βδγε) and eIF2Bα were normalized to 2 μM and 2.4 μM, respectively. 0.2 mL of each mixture was injected onto a Superose 6 Increase 10/300 column connected to an AKTA Pure 25 FPLC system (GE Healthcare). The system was run at 0.5 mL/min for 1 h using 25 mM HEPES, 200 mM KCl, 2 mM MgCl2, 1 mM DTT, pH 7.5 as the mobile phase. For conditions with ISRIB, the protein samples and mobile phase were supplemented with 500 nM ISRIB. For conditions with F6P, the protein samples and mobile phase were supplemented with 200 μM F6P. UV280 measurements were obtained directly by the instrument.

[6] = molecular target: T6, recombinant eIF2B(βδγε) ± eIF2Bα2 (Homo sapiens, UniProt P49770+Q9UI10); assay: Size-exclusion chromatography of recombinant eIF2B(βδγε) with or without eIF2Bα; type: biochemical; conditions: SEC, recombinant eIF2B(βδγε); 500 nM ISRIB, 200 μM F6P
T6 construct: made in house; host or cells: eIF2Bα: E. coli BL21(DE3)
Procedure: as §3

[7] = molecular target: T7, recombinant eIF2B(βδγε) ± eIF2Bα2 (Homo sapiens, UniProt P49770+Q14232+Q9UI10); assay: as above; type: biochemical; conditions: SEC, recombinant eIF2B(βδγε) + eIF2Bα2; 500 nM ISRIB, 200 μM F6P
T7 construct: made in house; host or cells: eIF2Bα: E. coli BL21(DE3)
Procedure: as §3

[8] = molecular target: T8, eIF2B decamer in eIF2Bα^E198K HEK293T lysate (Homo sapiens, UniProt P49770+Q14232+Q9UI10, E198K); assay: Sucrose gradient centrifugation, eIF2B complex assembly, eIF2Bα E198K HEK293T lysate; type: biochemical
T8 construct: endogenous in cells; host or cells: HEK293T, CRISPR knock-in eIF2Bα E198K (homozygous), lysate
Procedure: as §2

[9] = molecular target: T9, eIF2B in WT HEK293T lysate (Homo sapiens, UniProt P49770+Q14232+Q9UI10); assay: GEF activity assay with WT HEK293T lysate; type: biochemical
T9 construct: endogenous in cells; host or cells: HEK293T (wild type) lysate
Procedure: as §1
(§4) For unbiased screening, MIDAS metabolite libraries at 10 mM stock concentration were dispensed into wells of the assay plate using an Echo Acoustic Liquid Handler (Labcyte). In a final assay volume of 10 μL/well, the following conditions were kept constant: 25 nM Bodipy-FL-GDP-loaded eIF2, 4 nM phospho-eIF2, 0.1 mM GDP, 1 mg/mL BSA, 1 nM eIF2B, 10 μM metabolite. A single well was run for each metabolite. For targeted experiments with recombinant wild-type and mutant eIF2Bα, the following conditions were used: 50 nM Bodipy-FL-GDP-loaded eIF2, 0.1 mM GDP, 1 mg/ml BSA, 20 nM eIF2B. For targeted experiments with HEK293T lysates, the following conditions were used: 50 nM Bodipy-FL-GDP-loaded eIF2, 0.1 mM GDP, 1 mg/ml BSA, 0.1 or 0.3 mg/ml lysates.

[10] = molecular target: T10, eIF2B decamer in eIF2Bα^V183F HEK293T lysate (Homo sapiens, UniProt P49770+Q14232+Q9UI10, V183F); assay: Sucrose gradient centrifugation, eIF2B complex assembly, eIF2Bα V183F HEK293T lysate; type: biochemical; conditions: 500 nM ISRIB, 200 μM F6P
T10 construct: endogenous in cells
Procedure: as §2

[11] = molecular target: T11, eIF2B in eIF2Bα^E198K HEK293T lysate (Homo sapiens, UniProt P49770+Q14232+Q9UI10, E198K); assay: GEF activity assay with eIF2Bα E198K HEK293T lysate; type: biochemical
T11 construct: endogenous in cells; host or cells: HEK293T, CRISPR knock-in eIF2Bα E198K (homozygous), lysate
Procedure: as §1, §4

[12] = molecular target: the molecule itself; assay: SEC; purified eIF2Bα alone, 2.4 μM, Superose 6 Increase 10/300, 25 mM HEPES, 200 mM KCl, 2 mM MgCl2, 1 mM DTT, pH 7.5; no ligand (500 nM ISRIB had no effect)

T8 sequence (Q14232 whole entry E198K): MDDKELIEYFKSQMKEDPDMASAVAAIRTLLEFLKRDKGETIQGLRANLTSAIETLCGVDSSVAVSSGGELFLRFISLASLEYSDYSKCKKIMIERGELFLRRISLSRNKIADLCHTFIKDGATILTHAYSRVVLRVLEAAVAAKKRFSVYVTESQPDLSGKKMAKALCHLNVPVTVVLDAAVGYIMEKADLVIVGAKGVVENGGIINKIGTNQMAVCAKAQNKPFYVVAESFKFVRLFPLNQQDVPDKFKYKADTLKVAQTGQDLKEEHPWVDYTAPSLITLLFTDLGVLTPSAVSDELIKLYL
T8 sequence (P49770 whole entry): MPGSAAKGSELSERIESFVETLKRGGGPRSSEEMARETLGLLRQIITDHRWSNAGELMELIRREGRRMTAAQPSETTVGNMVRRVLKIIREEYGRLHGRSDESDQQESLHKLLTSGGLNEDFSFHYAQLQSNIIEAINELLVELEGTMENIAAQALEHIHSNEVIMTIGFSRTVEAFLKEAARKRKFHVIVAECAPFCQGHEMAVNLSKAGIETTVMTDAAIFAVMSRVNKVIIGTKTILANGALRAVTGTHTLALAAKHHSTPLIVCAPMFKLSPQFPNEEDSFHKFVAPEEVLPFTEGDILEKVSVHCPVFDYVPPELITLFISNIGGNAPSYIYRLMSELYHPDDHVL
T8 sequence (Q9UI10 whole entry): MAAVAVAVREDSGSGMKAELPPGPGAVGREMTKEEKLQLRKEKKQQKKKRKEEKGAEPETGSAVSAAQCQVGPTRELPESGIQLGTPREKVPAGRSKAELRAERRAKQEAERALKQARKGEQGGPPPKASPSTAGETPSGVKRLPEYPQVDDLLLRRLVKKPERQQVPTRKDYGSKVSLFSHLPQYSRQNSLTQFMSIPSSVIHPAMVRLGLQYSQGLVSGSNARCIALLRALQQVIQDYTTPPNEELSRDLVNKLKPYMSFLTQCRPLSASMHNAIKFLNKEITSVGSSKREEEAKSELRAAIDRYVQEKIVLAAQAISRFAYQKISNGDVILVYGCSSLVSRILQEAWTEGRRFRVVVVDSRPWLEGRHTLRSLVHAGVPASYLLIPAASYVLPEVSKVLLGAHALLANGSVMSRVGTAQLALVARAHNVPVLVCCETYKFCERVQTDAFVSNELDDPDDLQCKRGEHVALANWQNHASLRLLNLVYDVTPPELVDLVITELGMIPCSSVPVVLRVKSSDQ
T8 sequence (Q9NR50 whole entry partner): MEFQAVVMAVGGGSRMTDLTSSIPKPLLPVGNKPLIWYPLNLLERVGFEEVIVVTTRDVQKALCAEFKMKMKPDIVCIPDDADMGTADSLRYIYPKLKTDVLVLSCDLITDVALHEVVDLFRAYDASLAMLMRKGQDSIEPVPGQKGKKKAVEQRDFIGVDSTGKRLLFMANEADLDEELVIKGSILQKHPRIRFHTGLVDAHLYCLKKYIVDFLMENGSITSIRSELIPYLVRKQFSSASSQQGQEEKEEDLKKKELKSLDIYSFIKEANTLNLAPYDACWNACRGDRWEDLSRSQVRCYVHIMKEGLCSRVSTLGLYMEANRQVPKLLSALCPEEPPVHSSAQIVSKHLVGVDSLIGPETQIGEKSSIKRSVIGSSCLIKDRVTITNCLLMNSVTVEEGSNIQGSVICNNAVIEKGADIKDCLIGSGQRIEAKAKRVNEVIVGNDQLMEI
T8 sequence (Q13144 whole entry partner): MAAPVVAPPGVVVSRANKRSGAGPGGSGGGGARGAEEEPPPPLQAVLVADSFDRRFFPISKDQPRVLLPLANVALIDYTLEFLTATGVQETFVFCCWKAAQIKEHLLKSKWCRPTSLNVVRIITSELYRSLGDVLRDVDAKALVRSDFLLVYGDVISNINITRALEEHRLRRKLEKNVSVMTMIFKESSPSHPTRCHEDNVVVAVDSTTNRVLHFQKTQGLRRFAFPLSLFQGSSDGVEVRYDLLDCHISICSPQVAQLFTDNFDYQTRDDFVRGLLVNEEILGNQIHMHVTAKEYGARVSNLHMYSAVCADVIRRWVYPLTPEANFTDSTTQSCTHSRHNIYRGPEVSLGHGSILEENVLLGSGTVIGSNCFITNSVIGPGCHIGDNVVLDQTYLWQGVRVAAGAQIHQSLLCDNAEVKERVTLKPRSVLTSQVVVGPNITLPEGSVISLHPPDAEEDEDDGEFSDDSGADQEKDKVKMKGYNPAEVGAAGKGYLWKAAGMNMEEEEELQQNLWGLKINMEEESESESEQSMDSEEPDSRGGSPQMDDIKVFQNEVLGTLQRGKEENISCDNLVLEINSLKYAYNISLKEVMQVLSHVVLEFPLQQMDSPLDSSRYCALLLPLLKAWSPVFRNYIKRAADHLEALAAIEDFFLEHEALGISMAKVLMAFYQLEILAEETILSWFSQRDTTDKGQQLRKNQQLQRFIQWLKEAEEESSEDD
T11 sequence (Q14232 whole entry E198K): as the sequence (Q14232 whole entry E198K) above
T11 sequence (P49770 whole entry): as the sequence (P49770 whole entry) above
T11 sequence (Q9UI10 whole entry): as the sequence (Q9UI10 whole entry) above
T11 sequence (Q9NR50 whole entry partner): as the sequence (Q9NR50 whole entry partner) above
T11 sequence (Q13144 whole entry partner): as the sequence (Q13144 whole entry partner) above

log2(corrected fold change) (eIF2Bα [2]): 0.1066
effect on eIF2B GEF activity in the screen (eIF2B): a hit in this functional assay screen
Molecule: Nc1ncnc2c1ncn2[C@@H]1O[C@H](COP(=O)(O)O)[C@@H](O)[C@H]1O [AMP, Adenosine monophosphate]
Tm of eIF2Bα (eIF2Bα [1]; 0.33 mM metabolite): 65.271 °C and 65.2418 °C and 65.0115 °C and 64.5232 °C
Tm of eIF2Bα (eIF2Bα [1]; 1 mM metabolite): 66.0123 °C and 65.9255 °C and 65.7398 °C and 64.0959 °C
Tm of eIF2Bα (eIF2Bα [1]; 3.3 mM metabolite): 65.3392 °C and 65.2463 °C and 65.3342 °C and 64.7156 °C
Tm of eIF2Bα (eIF2Bα [1]; 10 mM metabolite): 66.4657 °C and 66.4512 °C and 66.2897 °C and 64.6159 °C
binding to C. thermophilum eIF2Bα [3]: binding

Molecule: Nc1nc2c(ncn2[C@@H]2O[C@H](COP(=O)(O)O)[C@@H](O)[C@H]2O)c(=O)[nH]1 [GMP]
Tm of eIF2Bα (eIF2Bα [1]; 0.33 mM metabolite): 65.0444 °C and 64.6931 °C and 64.6421 °C and 63.969 °C
Tm of eIF2Bα (eIF2Bα [1]; 1 mM metabolite): 65.9427 °C and 65.8956 °C and 65.7456 °C and 64.3903 °C
Tm of eIF2Bα (eIF2Bα [1]; 3.3 mM metabolite): 65.9427 °C and 65.7951 °C and 65.7602 °C and 64.8164 °C
Tm of eIF2Bα (eIF2Bα [1]; 10 mM metabolite): 66.5064 °C and 66.3635 °C and 66.1504 °C and 64.9333 °C
binding to C. thermophilum eIF2Bα [3]: binding

eIF2B decamer formation (migration of eIF2Bα and eIF2Bδ) [4]: formation of the decameric holoenzyme
co-immunoprecipitation of phospho-eIF2α with FLAG-tagged eIF2B [5]: significantly disrupted
monomer-to-dimer shift of eIF2Bα V183F (eIF2Bα^V183F): had no effect
complex formation in the absence of eIF2Bα [6]: enhanced formation of an (βδγε)2 octamer
complex formation in the presence of eIF2Bα [7]: enhanced formation
eIF2B decamer formation [8]: produced a shift to the decameric form
effect on GEF activity of WT lysate [9]: stimulated
effect on GEF activity of eIF2Bα E198K lysate [11]: boosted
Molecule: O=C(COc1ccc(Cl)cc1)NC1CCC(NC(=O)COc2ccc(Cl)cc2)CC1 (stereo not shown) [ISRIB, reference compound]
eIF2B decamer formation [10]: promoted decamer formation at comparable levels

B1: eIF2Bα (eukaryotic translation initiation factor 2B, α subunit), wild type, recombinant (natural protein, human)
chain: MDDKELIEYFKSQMKEDPDMASAVAAIRTLLEFLKRDKGETIQGLRANLTSAIETLCGVDSSVAVSSGGELFLRFISLASLEYSDYSKCKKIMIERGELFLRRISLSRNKIADLCHTFIKDGATILTHAYSRVVLRVLEAAVAAKKRFSVYVTESQPDLSGKKMAKALCHLNVPVTVVLDAAVGYIMEKADLVIVGAEGVVENGGIINKIGTNQMAVCAKAQNKPFYVVAESFKFVRLFPLNQQDVPDKFKYKADTLKVAQTGQDLKEEHPWVDYTAPSLITLLFTDLGVLTPSAVSDELIKLYL
notes: eIF2Bα, human, UniProt Q14232; called the small 34 kDa eIF2Bα subunit; C-terminal TEV-avi-FLAG tag; also called eIF2Bα2; α2
stoichiometry N [12]: 2
